Data published in US20050020534A1, “Method for treating diseases using HSP90-inhibiting agents in combination with antimetabolites” (Kosan Biosciences, Inc., priority 2003, published 2005).
Where two headings read alike, the source gives them in different places.

Legend:
[1] = tested on: DLD-1 cells (human colorectal cancer cells); test: MTS cell viability assay, drug combination effect analysis (combination index) in DLD-1 cells; format: cell-based; details: combination of antimetabolite with 17-AAG, CI<1 synergism, CI=1 additivity, CI>1 antagonism; for CI values, 17-AAG Pre-Administration: 17-AAG 24 hours before antimetabolite (48 hours); for CI values, 17-AAG Post-Administration: antimetabolite 24 hours, then 17-AAG for 48 hours
Description: Human colon adenocarcinoma cell line, DLD-1, and human breast adenocarcinoma cell line, SKBr-3, were obtained from American Type Culture Collection (manassas, Va.). […] Other cytotoxic agents were purchased commercially from suppliers such as Sigma Chemical Co. (St. Louis, Mo.) and Sequoia Research Products (Oxford, UK). Cells were seeded in duplicate in 96-well microtiter plates at a density of 5,000 cells per well and allowed to attach overnight. […] Cell viability was determined using the MTS assay (Promega). […] Based on the IC50 values of each individual drug, combined drug treatment was designed at constant ratios of two drugs, i.e., equivalent to the ratio of their IC50. Two treatment schedules were used: In one schedule, the cells were exposed to 24 hours of 17-AAG or 17-DMAG. The drug was then added to the cells and incubated for 48 hours. […] Cell viability was determined by the MTS assay. Synergism, additivity or antagonism was determined by median effect analysis using the combination index (CI) calculated using Calcusyn (Biosoft, Cambridge, UK). The combination index is defined as follows: […] The quantities [Dx]1 and [Dx]2 represent the concentrations of the first and second drug, respectively, that when used alone provide a response of x % in the assay. […] The “enhancing” effect of two drugs can also be determined.

[2] = tested on: SKBr cells (human breast cancer cells); test: MTS cell viability assay, drug combination effect analysis (combination index) in SKBr-3 cells; format: cell-based; details: combination of antimetabolite with 17-AAG, CI<1 synergism, CI=1 additivity, CI>1 antagonism; for CI values, 17-AAG Pre-Administration: 17-AAG 24 hours before antimetabolite (48 hours)
Description: Human colon adenocarcinoma cell line, DLD-1, and human breast adenocarcinoma cell line, SKBr-3, were obtained from American Type Culture Collection (manassas, Va.). […] Other cytotoxic agents were purchased commercially from suppliers such as Sigma Chemical Co. (St. Louis, Mo.) and Sequoia Research Products (Oxford, UK). Cells were seeded in duplicate in 96-well microtiter plates at a density of 5,000 cells per well and allowed to attach overnight. […] Cell viability was determined using the MTS assay (Promega). […] Based on the IC50 values of each individual drug, combined drug treatment was designed at constant ratios of two drugs, i.e., equivalent to the ratio of their IC50. Two treatment schedules were used: In one schedule, the cells were exposed to 24 hours of 17-AAG or 17-DMAG. The drug was then added to the cells and incubated for 48 hours. […] Cell viability was determined by the MTS assay. Synergism, additivity or antagonism was determined by median effect analysis using the combination index (CI) calculated using Calcusyn (Biosoft, Cambridge, UK). The combination index is defined as follows: […] The “enhancing” effect of two drugs can also be determined.

ErbB2 protein [3] = test: Expression of ErbB2 protein in SKBr3 cells; format: cell-based, human
ErbB2 protein [4] = test: Expression of ErbB2 protein in glioma cells; format: cell-based
[5] = clinical trials, sole therapeutic agent, cited from earlier work

SMILES	CI values, 17-AAG Pre-Administration [1]	CI values, 17-AAG Post-Administration [1]	CI values, 17-AAG Pre-Administration [2]	CI values, 17-AAG Post-Administration ([2]; antimetabolite 24 hours, then 17-AAG for 48 hours)	expression of ErbB2 protein (ErbB2 protein [3])	expression of ErbB2 protein (ErbB2 protein [4])	MTD ([5]; daily ×5 schedule)	MTD ([5]; once-weekly regimen)	MTD ([5]; twice-weekly regimen)
CN(Cc1cnc2nc(N)nc(N)c2n1)c1ccc(C(=O)N[C@@H](CCC(=O)O)C(=O)O)cc1 [Methotrexate, methotrexate]	0.83 ± 0.14	0.71 ± 0.35	–	–	–	–	–	–	–
Nc1ccn([C@@H]2O[C@H](CO)[C@@H](O)C2(F)F)c(=O)n1 [Gemcitabine, gemcitabine]	0.45 ± 0.19	0.77 ± 0.23	1.79 ± 0.54	0.86 ± 0.19	–	–	–	–	–
O=c1[nH]cc(F)c(=O)[nH]1 [5-Fluorouracil, 5-fluorouracil]	0.96 ± 0.16	0.33 ± 0.08	0.65 ± 0.48	–	–	–	–	–	–
CO[C@H]1/C=C\C=C(/C)C(=O)NC2=CC(=O)C(NCCN(C)C)=C(C[C@@H](C)C[C@H](OC)[C@H](O)[C@@H](C)/C=C(\C)[C@@H]1OC(N)=O)C2=O [17-DMAG, 17-(2-dimethylaminoethyl)amino-17-desmethoxygeldanamycin]	–	–	–	–	reduced the expression	reduced the expression	–	–	–
C=CCNC1=C2C[C@@H](C)C[C@H](OC)[C@H](O)[C@@H](C)/C=C(\C)[C@H](OC(N)=O)[C@@H](OC)/C=C\C=C(/C)C(=O)NC(=CC1=O)C2=O [17-AAG, 17-(allylamino)-17-desmethoxygeldanamycin]	–	–	–	–	reduced the expression	reduced the expression	about 40 mg/m^2	about 308 mg/m^2	about 220 mg/m^2
